By IC50 is commonly meant the concentration that gives 50% inhibition. What is called inhibition is the drop in the measured response relative to a control, in per cent. High values mean strong suppression, low ones little suppression.

The target of assay [1] is T1, Tyrosine-protein kinase Mer (Homo sapiens, UniProt Q12866).
T1 sequence (Q12866 whole entry): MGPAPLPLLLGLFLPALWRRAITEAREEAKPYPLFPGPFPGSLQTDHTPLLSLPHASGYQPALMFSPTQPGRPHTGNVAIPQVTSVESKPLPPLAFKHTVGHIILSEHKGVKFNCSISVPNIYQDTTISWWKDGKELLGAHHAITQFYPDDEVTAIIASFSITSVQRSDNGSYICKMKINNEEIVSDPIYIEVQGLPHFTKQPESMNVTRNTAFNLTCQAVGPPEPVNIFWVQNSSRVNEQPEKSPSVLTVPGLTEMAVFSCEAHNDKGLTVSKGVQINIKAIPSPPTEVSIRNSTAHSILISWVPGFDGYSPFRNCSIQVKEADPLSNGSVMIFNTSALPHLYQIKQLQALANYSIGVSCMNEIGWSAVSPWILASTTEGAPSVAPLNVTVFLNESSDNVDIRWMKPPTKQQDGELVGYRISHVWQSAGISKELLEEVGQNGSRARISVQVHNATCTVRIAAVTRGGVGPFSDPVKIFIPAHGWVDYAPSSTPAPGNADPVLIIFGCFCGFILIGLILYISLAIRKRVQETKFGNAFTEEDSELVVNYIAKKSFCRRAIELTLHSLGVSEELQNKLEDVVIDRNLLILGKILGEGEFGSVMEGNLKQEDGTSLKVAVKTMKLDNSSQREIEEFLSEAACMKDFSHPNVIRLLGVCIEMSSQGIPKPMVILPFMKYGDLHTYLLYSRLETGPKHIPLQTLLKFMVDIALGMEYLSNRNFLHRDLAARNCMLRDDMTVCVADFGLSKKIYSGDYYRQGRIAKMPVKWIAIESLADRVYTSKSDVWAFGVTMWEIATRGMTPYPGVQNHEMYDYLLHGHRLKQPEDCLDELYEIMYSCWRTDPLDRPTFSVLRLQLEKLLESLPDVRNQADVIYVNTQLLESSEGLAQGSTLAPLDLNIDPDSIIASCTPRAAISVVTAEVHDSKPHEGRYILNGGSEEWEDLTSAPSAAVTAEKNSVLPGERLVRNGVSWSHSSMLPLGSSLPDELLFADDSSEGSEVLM
In words: Inhibition of MER (unknown origin).

Assay [2] deals with A549. The experiment in a line: cells. Conditions: Homo sapiens, A549, 72 h.
Description: Antiproliferative activity against human A549 cells measured after 72 hrs by MTT assay
For assay [3], the target named is T2, Receptor-type tyrosine-protein kinase FLT3 (Homo sapiens, UniProt P36888).
T2 sequence (P36888 whole entry): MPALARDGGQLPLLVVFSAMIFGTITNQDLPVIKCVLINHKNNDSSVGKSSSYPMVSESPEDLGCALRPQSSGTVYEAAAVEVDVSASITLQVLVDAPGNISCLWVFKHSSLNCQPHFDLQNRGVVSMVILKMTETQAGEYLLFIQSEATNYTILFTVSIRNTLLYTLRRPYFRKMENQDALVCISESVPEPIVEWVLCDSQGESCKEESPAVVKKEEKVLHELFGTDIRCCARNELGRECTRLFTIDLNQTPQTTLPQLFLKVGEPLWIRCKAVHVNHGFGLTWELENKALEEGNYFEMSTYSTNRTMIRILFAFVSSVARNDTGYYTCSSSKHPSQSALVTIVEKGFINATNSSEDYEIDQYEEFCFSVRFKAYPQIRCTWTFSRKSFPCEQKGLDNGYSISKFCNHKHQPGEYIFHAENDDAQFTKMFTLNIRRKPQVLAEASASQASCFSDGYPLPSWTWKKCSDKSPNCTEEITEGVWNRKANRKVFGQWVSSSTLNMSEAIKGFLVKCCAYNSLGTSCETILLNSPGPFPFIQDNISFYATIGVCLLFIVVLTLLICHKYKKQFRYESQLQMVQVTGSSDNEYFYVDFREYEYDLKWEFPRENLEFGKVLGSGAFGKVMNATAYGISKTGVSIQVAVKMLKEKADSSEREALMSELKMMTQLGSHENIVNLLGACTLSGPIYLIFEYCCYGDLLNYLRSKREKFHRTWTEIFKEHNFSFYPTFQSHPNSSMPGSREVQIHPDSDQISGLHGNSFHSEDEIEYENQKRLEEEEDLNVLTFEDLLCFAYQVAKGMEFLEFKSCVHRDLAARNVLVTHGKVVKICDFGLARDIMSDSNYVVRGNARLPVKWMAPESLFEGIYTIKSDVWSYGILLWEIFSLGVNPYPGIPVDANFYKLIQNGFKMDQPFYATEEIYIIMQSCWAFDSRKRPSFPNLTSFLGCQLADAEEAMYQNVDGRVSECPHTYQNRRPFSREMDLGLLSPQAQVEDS
The experiment in a line: Inhibition of human N-terminal GST-fused FLT3 cytoplasmic domain (564 to 993 residues) expressed in baculovirus expression system using Srctide as substrate measured after 1 hr by mobility shift assay.

For assay [4], the target named is Mast/stem cell growth factor receptor Kit (Homo sapiens, UniProt P10721). The experiment in a line: Inhibition of human N-terminal GST-tagged c-Kit cytoplasmic domain (544 to end residues) expressed in baculovirus infected Sf21 insect cells using peptide substrate measured after 1 hr by mobility shift assay.
Assay [5] has as its system HT-29. The experiment in a line: Antiproliferative activity against human HT-29 cells measured after 72 hrs by MTT assay. As to conditions: HT-29, 72 h. For orientation: Tetrazolium assays rely on reduction of a dye to a coloured formazan, in cell work by metabolically active cells.
Assay [6] has as its target Hepatocyte growth factor receptor (Homo sapiens, UniProt P08581). The experiment in a line: Inhibition of human N-terminal GST-fused c-MET cytoplasmic domain (956 to 1390 residues) expressed in baculovirus expression system using Srctide as substrate measured after 1 hr by mobility shift assay.
The subject of assay [7] is MCF7. The experiment in a line: Antiproliferative activity against human MCF7 cells measured after 72 hrs by MTT assay. In kind it is functional, cell-based. Conditions: MCF7, 72 h.
Assay [8] concerns the target Platelet-derived growth factor receptor beta (Homo sapiens, UniProt P09619). In words: Inhibition of human His-tagged PDGFRB cytoplasmic domain expressed in baculovirus expression system using peptide substrate measured after 1 hr by mobility shift assay.
Assay [9] addresses Vascular endothelial growth factor receptor 2 (Homo sapiens, UniProt P35968). The experiment in a line: Inhibition of human N-terminal GST-fused KDR cytoplasmic domain (790 to 1356 residues) expressed in baculovirus expression system using CSKtide as substrate measured after 1 hr by mobility shift assay.
The test system of assay [10] is PC-3. The experiment in a line: cells. Conditions: Homo sapiens, PC-3, 72 h.
Description: Antiproliferative activity against human PC-3 cells measured after 72 hrs by MTT assay
The target in assay [11] is Tyrosine-protein kinase receptor UFO (Homo sapiens) (UniProt P30530). As to conditions: dose 100.0 nM, time 1.0 hrs.

Some results are limits rather than exact numbers.

Mast/stem cell growth factor receptor Kit, sequence (P10721 whole entry, the tested form may be a part): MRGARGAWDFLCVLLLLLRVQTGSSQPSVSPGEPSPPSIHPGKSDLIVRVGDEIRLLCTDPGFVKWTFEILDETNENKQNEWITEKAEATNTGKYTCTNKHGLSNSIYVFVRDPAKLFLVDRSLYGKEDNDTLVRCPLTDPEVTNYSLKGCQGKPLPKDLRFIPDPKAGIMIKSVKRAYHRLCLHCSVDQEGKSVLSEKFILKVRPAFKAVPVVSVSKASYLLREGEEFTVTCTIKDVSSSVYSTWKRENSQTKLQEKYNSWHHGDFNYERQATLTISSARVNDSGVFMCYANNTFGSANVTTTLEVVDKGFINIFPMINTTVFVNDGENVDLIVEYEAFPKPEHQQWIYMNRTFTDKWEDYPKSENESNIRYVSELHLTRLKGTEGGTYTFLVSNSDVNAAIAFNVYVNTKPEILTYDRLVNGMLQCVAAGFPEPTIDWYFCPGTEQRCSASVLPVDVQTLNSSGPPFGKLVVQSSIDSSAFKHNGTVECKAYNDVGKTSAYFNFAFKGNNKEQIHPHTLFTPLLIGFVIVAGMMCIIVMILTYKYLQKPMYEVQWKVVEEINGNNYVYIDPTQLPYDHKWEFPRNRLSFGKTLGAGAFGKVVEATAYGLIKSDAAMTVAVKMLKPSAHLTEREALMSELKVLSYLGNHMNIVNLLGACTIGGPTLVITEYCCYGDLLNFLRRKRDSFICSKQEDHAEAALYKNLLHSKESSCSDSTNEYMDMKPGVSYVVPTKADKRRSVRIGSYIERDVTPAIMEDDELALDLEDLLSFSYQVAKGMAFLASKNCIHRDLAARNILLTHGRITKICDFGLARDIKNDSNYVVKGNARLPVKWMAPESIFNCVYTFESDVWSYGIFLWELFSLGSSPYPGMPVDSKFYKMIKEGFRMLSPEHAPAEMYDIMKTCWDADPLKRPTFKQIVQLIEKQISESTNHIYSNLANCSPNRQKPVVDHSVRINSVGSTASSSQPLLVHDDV
Tyrosine-protein kinase receptor UFO (Homo sapiens), sequence (P30530 whole entry): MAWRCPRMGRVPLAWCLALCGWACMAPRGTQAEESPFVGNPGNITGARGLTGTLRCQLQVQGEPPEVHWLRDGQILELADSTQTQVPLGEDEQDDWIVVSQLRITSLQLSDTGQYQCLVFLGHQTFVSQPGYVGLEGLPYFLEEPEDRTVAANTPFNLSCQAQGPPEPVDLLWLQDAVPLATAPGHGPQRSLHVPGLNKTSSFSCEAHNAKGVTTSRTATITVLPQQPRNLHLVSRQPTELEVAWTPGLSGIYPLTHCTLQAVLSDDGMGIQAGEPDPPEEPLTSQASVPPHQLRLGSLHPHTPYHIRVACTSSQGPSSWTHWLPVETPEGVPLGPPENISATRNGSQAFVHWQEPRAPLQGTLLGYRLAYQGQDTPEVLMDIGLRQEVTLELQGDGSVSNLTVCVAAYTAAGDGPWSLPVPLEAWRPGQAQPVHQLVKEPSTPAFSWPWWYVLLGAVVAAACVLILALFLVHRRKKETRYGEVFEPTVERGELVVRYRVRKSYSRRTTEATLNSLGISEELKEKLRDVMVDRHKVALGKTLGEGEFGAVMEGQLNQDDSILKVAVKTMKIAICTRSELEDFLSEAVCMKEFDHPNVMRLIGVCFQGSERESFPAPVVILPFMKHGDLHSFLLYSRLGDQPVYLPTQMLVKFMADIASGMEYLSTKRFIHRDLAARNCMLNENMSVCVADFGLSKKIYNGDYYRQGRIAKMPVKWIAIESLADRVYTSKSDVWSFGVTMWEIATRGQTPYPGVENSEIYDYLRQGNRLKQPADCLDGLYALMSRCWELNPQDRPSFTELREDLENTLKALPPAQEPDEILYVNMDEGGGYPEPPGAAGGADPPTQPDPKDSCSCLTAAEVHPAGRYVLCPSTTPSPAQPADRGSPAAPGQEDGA
Hepatocyte growth factor receptor, sequence (P08581 whole entry, the tested form may be a part): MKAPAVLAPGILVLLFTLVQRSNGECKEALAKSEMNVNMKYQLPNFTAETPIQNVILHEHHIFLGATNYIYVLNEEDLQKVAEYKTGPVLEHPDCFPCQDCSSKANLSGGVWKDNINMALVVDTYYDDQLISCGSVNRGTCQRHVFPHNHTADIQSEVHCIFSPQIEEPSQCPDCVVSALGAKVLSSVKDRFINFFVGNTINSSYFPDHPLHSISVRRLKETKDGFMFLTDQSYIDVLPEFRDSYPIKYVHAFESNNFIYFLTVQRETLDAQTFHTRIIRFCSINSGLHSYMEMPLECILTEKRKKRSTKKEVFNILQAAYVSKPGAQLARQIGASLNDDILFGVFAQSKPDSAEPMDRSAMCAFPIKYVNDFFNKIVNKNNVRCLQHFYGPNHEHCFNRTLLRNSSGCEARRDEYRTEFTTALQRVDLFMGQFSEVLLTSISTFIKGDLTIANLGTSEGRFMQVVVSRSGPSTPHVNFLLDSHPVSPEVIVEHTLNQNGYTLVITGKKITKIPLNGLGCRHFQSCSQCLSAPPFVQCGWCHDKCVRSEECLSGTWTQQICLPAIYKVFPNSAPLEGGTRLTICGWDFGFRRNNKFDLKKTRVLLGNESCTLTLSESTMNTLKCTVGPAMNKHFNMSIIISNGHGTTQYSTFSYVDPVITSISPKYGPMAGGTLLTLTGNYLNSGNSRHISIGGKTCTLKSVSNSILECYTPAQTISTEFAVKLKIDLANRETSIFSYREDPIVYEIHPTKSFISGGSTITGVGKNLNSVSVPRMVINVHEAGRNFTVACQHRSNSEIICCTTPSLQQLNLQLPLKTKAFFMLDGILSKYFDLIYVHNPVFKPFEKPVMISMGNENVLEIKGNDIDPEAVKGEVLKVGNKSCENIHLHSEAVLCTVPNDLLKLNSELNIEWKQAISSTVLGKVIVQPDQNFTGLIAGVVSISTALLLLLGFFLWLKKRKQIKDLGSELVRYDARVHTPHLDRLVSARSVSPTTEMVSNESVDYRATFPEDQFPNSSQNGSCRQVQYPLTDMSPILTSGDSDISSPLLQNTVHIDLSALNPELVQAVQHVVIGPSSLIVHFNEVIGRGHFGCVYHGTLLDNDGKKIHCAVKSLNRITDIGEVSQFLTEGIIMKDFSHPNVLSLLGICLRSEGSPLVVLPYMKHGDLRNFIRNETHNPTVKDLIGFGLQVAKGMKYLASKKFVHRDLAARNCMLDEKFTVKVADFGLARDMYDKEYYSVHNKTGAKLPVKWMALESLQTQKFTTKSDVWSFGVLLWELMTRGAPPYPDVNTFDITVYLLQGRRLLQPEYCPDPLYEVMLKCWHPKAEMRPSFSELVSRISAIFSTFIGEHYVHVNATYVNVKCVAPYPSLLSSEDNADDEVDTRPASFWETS
Vascular endothelial growth factor receptor 2, sequence (P35968 whole entry, the tested form may be a part): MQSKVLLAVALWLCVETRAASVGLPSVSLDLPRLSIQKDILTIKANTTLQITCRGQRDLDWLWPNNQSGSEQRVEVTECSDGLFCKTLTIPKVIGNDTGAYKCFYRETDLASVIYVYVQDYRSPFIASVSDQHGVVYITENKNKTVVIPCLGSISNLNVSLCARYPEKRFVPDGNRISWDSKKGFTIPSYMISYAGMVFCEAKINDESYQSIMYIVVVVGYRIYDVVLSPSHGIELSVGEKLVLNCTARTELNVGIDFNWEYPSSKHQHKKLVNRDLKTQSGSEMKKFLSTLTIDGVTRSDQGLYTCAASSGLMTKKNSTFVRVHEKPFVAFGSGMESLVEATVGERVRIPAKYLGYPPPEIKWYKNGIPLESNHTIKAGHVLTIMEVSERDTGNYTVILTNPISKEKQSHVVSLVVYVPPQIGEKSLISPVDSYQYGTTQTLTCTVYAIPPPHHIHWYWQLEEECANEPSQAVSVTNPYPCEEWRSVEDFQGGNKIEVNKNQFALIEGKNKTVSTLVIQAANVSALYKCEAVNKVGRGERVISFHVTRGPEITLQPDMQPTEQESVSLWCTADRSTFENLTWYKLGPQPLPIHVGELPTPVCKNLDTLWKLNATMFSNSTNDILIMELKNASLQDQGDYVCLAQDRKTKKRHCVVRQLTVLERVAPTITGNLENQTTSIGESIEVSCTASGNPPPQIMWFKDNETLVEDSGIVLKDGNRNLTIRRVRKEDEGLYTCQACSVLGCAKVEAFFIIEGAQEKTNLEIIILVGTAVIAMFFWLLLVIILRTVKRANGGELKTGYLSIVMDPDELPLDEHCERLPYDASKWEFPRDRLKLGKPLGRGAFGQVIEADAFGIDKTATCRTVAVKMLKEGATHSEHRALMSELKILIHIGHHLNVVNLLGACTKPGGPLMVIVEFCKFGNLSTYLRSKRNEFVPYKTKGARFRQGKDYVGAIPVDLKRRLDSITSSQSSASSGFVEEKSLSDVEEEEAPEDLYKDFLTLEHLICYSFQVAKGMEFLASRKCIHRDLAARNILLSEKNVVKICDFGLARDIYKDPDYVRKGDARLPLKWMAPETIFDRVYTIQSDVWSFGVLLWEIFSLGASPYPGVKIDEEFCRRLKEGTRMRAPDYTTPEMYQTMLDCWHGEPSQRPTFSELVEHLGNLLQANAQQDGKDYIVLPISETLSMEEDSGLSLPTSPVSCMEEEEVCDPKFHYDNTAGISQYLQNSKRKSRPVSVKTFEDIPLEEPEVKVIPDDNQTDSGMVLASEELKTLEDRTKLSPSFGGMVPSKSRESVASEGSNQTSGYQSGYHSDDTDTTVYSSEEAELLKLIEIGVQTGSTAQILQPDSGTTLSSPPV

For `COc1cc2c(Oc3ccc(NC(=O)C(C)c4nnc(-c5ccc(F)cc5)o4)cc3F)ccnc2cc1OCCCN1CCC(C)CC1` (centres undefined), the IC50 is more than 0.2 µM in assay [1]; 0.032 µM in [2]; more than 0.2 µM in assay [3]; 0.047 µM in assay [4]; 1.46 µM in [5]; 0.062 µM in [6]. For the same compound, the half-maximal inhibitory concentration (IC50) was 1 µM in assay [7], more than 0.2 µM in assay [8], 0.04 µM in [9] and 0.53 µM in assay [10].
Consider `COc1cc2c(Oc3ccc(NC(=O)C4(C(=O)Nc5ccc(F)cc5)CC4)cc3F)ccnc2cc1OCCCN1CCOCC1` [FORETINIB], for which the IC50 in assay [2] is 0.21 µM; in assay [7], 2 µM; in assay [10], 0.81 µM. The same compound showed an inhibition in [11] of 88%.

The values are drawn from ChEMBL document CHEMBL4680122, “Design, synthesis and biological evaluation of new Axl kinase inhibitors containing 1,3,4-oxadiazole acetamide moiety as novel linker” (Eur J Med Chem, 2020).
